From patent US12570645B2, “Uses of p53 x-ray co-crystal structures” (PMV Pharmaceuticals, Inc., priority 2020, dated 2026)

target: T1, p53 Y220C (Homo sapiens, UniProt P04637, P309S/R273H/Y220C); test: HTRF / TR-FRET in vitro DNA binding activity assay (SC150); type: biochemical; settings: concentration required to increase DNA binding activity of p53 Y220C by 50%; TABLE 10
T1 construct: made in house; host or cells: E. coli
Method: The ability of a compound of the invention to stabilize p53 Y220C and increase the DNA binding activity of p53 Y220C was measured by a homogeneous time-resolved fluorescence (HTRF) assay. Recombinant His-tagged p53 Y220C used in the HTRF assay was expressed in the bacterium E. coli. The recombinant protein was a truncation mutant containing only amino acids 94-312 of p53, which encompassed the DNA binding domain (DBD) of p53 (SEQ ID NO.: 1). The His-tagged p53 Y220C was tested for DNA binding ability with a consensus sequence of DNA (DNA duplex with a sequence of 5′-[…]-3′; SEQ ID NO.: 2). SEQ ID NO.: 2 was then conjugated with a biotin label and used in the activity assay.
The binding of the recombinant His-tagged p53 Y220C protein and the biotin-labeled consensus DNA was measured using fluorescence resonance energy transfer (FRET). For the FRET assay, the binding between the p53 mutant and the DNA sequence was measured by detecting the fluorescence of the interaction between an anti-His antibody conjugated to allophycocyanin (APC) and streptavidin conjugated to europium to detect the biotin-labeled DNA.
The test compounds were prepared as 4.5 mM stock solutions in dimethyl sulfoxide (DMSO). The compounds of the disclosure were used to test the stabilization of p53 Y220C and increase in DNA binding activity of p53 Y220C. The stock solutions were then serially diluted 3-fold in DMSO, and 1.2 μL of the diluted solutions was added to each well of a 384-well polypropylene black plate. 30 μL of a 181 nM solution of the recombinant His-tagged p53 Y220C protein and 12.1 nM of APC conjugated anti-His tag antibody in ice-cold Assay Buffer 1 (50 mM Tris-HCl, pH 7.4; 75 mM KCl; 0.75 mM DTT; and 0.2 mg/mL bovine serum albumin (BSA) was added to each well containing the test compounds.
As a background control, 30 μL of Assay Buffer 1 containing 12.1 nM of APC anti-His antibody was also added into a second set of serially-diluted compound plates. The test and control samples were spun at 1200 rpm for 1 minute and incubated at room temperature for 15 minutes. The samples were then further incubated at either 27° C. or 29° C. for 60 min. Five microliters of 311 nM biotin labeled consensus DNA (SEQ ID NO.: 2) and 13.03 nM europium-conjugated streptavidin in Assay Buffer 2 (50 mM Tris-HCl, pH 7.4; 75 mM KCl; and 0.2 mg/mL BSA) were added to each well for both the test and control plates. The plates were spun at 1200 rpm for 1 minute and incubated at room temperature for 20 minutes. The assay signals were monitored by reading excitation at 340 nm, and emission fluorescence at 615 nm and 665 nm on a plate reader.
Normalized time-resolved fluorescence resonance energy transfer (TR-FRET) assay signal (Rn) was calculated by the formula: Rn=[(A−Ba−CD)/(D−Bd)](Dc−Bd) where A was the fluorescence intensity of the sample at 665 nm; D was the fluorescence intensity of the sample at 615 nm; Ba and Bd were plate background readings at 665 nm and 615 nm, respectively; and Dc was the fluorescence intensity of 1.8 nM Eu-SA in the assay buffer at 615 nm.
The cross talk factor (C) was determined by the following formula: C═(Ac−Ba)/(DC−Bd) where Ac was the fluorescence intensity of 1.8 nM Eu-labeled anti-FLAG antibody in the assay buffer at 665 nm.
The percentage of activation of protein DNA binding in the presence of a compound of the invention compared to the absence of the compound was denoted by a SC150 value, which indicated the concentration of the compound required to increase the DNA binding activity by 50%. The SC150 values were calculated using either Prism™ or ActivityBase™.

Row | SMILES | SC150 (μM)
1 | COCC(O)CN1CCC(Nc2cccc3c2cc(C#CCNc2ccc(S(C)(=O)=O)cc2OC)n3CC(F)(F)F)CC1 (stereo not shown) [Compound 7, 1-{4-[(2-{3-[(4-methanesulfonyl-2-methoxyphenyl)amino]prop-1-yn-1-yl}-1-(2,2,2-trifluoroethyl)-1H-indol-4-yl)amino]piperidin-1-yl}-3-methoxypropan-2-ol] | ′ (′ = 0 μM ≤ SC150 < 0.05 μM)
2 | COc1cc(S(C)(=O)=O)ccc1NCC#Cc1cc2c(N[C@H]3CC[C@H](N4CC5CC(C4)O5)CC3)cccc2n1CC(F)(F)F [Compound 10, 2-{3-[(4-methanesulfonyl-2-methoxyphenyl)amino]prop-1-yn-1-yl}-N-[(1r,4r)-4-{6-oxa-3-azabicyclo[3.1.1]heptan-3-yl}cyclohexyl]-1-(2,2,2-trifluoroethyl)-1H-indol-4-amine] | ′ (′ = 0 μM ≤ SC150 < 0.05 μM)
3 | COc1cc(S(C)(=O)=O)ccc1NCC#Cc1cc2c(N[C@@H]3CCN(C)C[C@@H]3F)cccc2n1CC(F)(F)F [Compound 13, N-[(3S,4R)-3-fluoro-1-methylpiperidin-4-yl]-2-{3-[(4-methanesulfonyl-2-methoxyphenyl)amino]prop-1-yn-1-yl}-1-(2,2,2-trifluoroethyl)-1H-indol-4-amine] | ′ (′ = 0 μM ≤ SC150 < 0.05 μM)
4 | CNC(=O)c1ccc(NCC#Cc2cc3c(N[C@@H]4CCN(C)C[C@@H]4F)cccc3n2CC(F)(F)F)c(OC)c1 [Compound 14, 4-{[3-(4-{[(3S,4R)-3-fluoro-1-methylpiperidin-4-yl]amino}-1-(2,2,2-trifluoroethyl)-1H-indol-2-yl)prop-2-yn-1-yl]amino}-3-methoxy-N-methylbenzamide] | ′ (′ = 0 μM ≤ SC150 < 0.05 μM)
5 | COc1cc(S(C)(=O)=O)ccc1NCC#Cc1cc2c(N(C)C)cccc2n1CC(F)(F)F [Molecule 702] | ′′′ (′′′ = 0.1 μM ≤ SC150 < 0.2 μM)
6 | COc1cc(S(C)(=O)=O)ccc1NCC#Cc1cc2c(NC(=O)NC3CCN(CCO)CC3)cccc2n1CC(F)(F)F [Molecule 1155] | ′′′′ (′′′′ = 0.2 μM ≤ SC150 < 1 μM)
7 | COc1cc(S(=O)(=O)Nc2ccon2)ccc1NCC#Cc1cc2c(NC3CCC(N(C)C)CC3)cccc2n1CC(F)(F)F (stereo not shown) [Molecule 1188] | ′ (′ = 0 μM ≤ SC150 < 0.05 μM)
8 | CNC(=O)c1ccc(NCC#Cc2cc3c(NC4CCC(N5CC(S(C)(=O)=O)C5)CC4)cccc3n2CC(F)(F)F)c(OC)c1 (stereo not shown) [Molecule 1330] | ′ (′ = 0 μM ≤ SC150 < 0.05 μM)
9 | CN1CCC(Nc2cccc3c2cc(C#CCNc2ccc(S(C)(=O)=O)cc2O)n3CC(F)(F)F)CC1 [Molecule 1623] | ′ (′ = 0 μM ≤ SC150 < 0.05 μM)
10 | COc1cc(S(N)(=O)=O)ccc1NCC#Cc1cc2c(NC3CCN(C[C@@H](O)CO)CC3)cccc2n1CC(F)(F)F [Molecule 1687] | ′ (′ = 0 μM ≤ SC150 < 0.05 μM)
11 | CNC(=O)c1ccc(NCC#Cc2cc3c(N[C@H]4CCN(C)C[C@H]4F)cccc3n2CC(F)(F)F)c(OC)c1 [Molecule 1921] | ′ (′ = 0 μM ≤ SC150 < 0.05 μM)
12 | COc1cc(C(N)=O)ccc1NCC#Cc1cc2c(N[C@@H]3CCN(C)C[C@@H]3F)cccc2n1CC(F)(F)F [Molecule 1938] | ′ (′ = 0 μM ≤ SC150 < 0.05 μM)
13 | COc1cc(C(N)=O)ccc1NCC#Cc1cc2c(N[C@H]3CCN(C)C[C@H]3F)cccc2n1CC(F)(F)F [Molecule 1939] | ′ (′ = 0 μM ≤ SC150 < 0.05 μM)
14 | COc1cc(C(N)=O)ccc1NCC#Cc1cc2c(NC3C[C@@H](C)O[C@@H](C)C3)cccc2n1CC(F)(F)F (stereo partly shown) [Molecule 2168] | ′′′ (′′′ = 0.1 μM ≤ SC150 < 0.2 μM)

same assay, conditions: concentration required to increase DNA binding activity of p53 Y220C by 50%; TABLE 11

Row | SMILES | SC150 (μM)
15 | CN1CC[C@H](Nc2cccc3c2cc(-c2ccc(CNC(=O)c4ccccc4)cc2)n3CC(F)(F)F)[C@H](F)C1 [Molecule 2239] | + (+ = 0 μM ≤ SC150 < 2 μM)
16 | CN1CC[C@H](Nc2cccc3c2cc(-c2ccc(CNC(=O)C4CC4)cc2)n3CC(F)(F)F)[C@H](F)C1 [Molecule 2240] | + (+ = 0 μM ≤ SC150 < 2 μM)

same assay, conditions: concentration required to increase DNA binding activity of p53 Y220C by 50%; TABLE 12

Row | SMILES | SC150 (μM)
17 | N#Cc1cccc(-c2cc3c(NC4CCS(=O)(=O)CC4)cccc3n2CC(F)(F)F)c1 [Molecule 2204] | ** (** = 0.1 μM ≤ SC150 < 0.5 μM)
18 | Cc1ccc(-c2cc3c(NC4CCS(=O)(=O)CC4)cccc3n2CC(F)(F)F)c(F)c1 [Molecule 2205] | ** (** = 0.1 μM ≤ SC150 < 0.5 μM)
19 | O=S1(=O)CCC(Nc2cccc3c2cc(-c2cccc(Cl)c2)n3CC(F)(F)F)CC1 [Molecule 2206] | * (* = 0 μM ≤ SC150 < 0.1 μM)
